The target in assay [1] is T1, vinculin in HeLa cells (Homo sapiens, UniProt P18206).
T1 construct: endogenous in cells; host or cells: HeLa
T1 sequence (P18206 1-1066 isoform P18206-2): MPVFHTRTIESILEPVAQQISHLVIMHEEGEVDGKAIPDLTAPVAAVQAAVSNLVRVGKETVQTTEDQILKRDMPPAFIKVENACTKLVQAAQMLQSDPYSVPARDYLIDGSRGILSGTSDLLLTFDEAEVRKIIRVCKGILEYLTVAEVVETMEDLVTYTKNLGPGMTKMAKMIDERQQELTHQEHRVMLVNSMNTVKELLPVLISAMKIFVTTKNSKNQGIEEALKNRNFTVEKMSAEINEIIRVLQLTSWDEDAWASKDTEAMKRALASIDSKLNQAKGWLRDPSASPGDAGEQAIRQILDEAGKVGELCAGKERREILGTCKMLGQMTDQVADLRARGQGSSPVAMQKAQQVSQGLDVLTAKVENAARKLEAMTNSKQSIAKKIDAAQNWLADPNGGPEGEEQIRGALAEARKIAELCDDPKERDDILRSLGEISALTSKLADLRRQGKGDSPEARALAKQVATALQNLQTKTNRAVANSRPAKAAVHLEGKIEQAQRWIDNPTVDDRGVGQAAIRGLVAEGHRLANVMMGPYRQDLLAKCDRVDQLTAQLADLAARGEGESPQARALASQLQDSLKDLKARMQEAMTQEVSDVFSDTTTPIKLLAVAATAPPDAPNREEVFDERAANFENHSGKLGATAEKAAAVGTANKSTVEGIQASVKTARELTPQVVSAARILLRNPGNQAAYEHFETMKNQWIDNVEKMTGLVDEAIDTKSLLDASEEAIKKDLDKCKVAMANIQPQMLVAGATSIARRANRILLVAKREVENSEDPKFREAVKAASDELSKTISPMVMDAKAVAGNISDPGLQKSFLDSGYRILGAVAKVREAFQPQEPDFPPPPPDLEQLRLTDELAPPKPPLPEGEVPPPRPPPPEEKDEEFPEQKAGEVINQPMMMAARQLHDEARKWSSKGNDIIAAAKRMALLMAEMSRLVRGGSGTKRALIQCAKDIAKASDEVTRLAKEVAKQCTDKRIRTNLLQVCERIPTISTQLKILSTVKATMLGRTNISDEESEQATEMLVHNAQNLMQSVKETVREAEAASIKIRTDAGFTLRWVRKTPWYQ
As to the kind of experiment: Co-localization of 5FAM-labeled peptide with vinculin in HeLa cells (microscopy). The settings on record: 15 μM, 5-15 minutes. Format: cell-based. As for the experimental part: HeLa cells were seeded on a 24-well plate with inserted coverslips at a density of 30000 cells/well. After 24h the cells were treated with 15 μM peptide for the desired amount of time (5, 10, 15 minutes). Cells were then fixed in 3% paraformaldehyde (PFA, Sigma) for 20 minutes and permeabilized with 0.1% Triton X-100 (Sigma) for 5 minutes at room temperature. Cells were then washed 3 times with PBS and stained with antibodies. Staining with primary antibody (paxillin/vinculin (Abcam)) was performed for 30 minutes, followed by three PBS washes and secondary staining using goat anti-mouse Alexa 568 antibody (Life Technologies) for 30 minutes. Then the nuclei were stained with 0.2 μg/ml Hoechst33342, the coverslips were thoroughly washed with PBS and mounted on glass slides with Mowiol mounting medium. The slides were then imaged on a FluoView FV1000 laser scanning microscope (Olympus) with 60x UPLSAPO 1.35NA (Olympus) oil immersion objective.

Assay [2] relates to resting platelets. As to the kind of experiment: Platelet aggregation induced by peptide in resting washed platelets (activation). Format: cell-based, human (healthy volunteers). Summed up: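 Aggregation was read by optical density at 37°C under 1100 rpm stirring. Samples were 3x10^5/μl washed human platelets, rested 45 min and supplemented with 1.8 mM calcium chloride. Peptide went in at 2 min, followed 6 min later by TRAP at an experiment-dependent concentration, with 7 min further recording.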

Assay [3] concerns the target T2, vinculin (Homo sapiens, UniProt P18206).
T2 sequence (P18206 1-1066 isoform P18206-2): T1 sequence (P18206 1-1066 isoform P18206-2)
As to the kind of experiment: Surface plasmon resonance, peptides injected over immobilised vinculin. Format: binding. The settings on record: SPR, CM5 chip, serial peptide injections at 1 mM; rank order. The procedure:
The SPR experiments were performed using a Biacore T200 system (GE Healthcare), and Series S CM5 or SA chips with 4 flow cells each.
Lyophilized vinculin was dissolved in flow buffer to a concentration of 1 mg/ml and covalently coupled onto the carboxymethylated dextran matrix of CM5 sensor chips using standard amine coupling. The flow buffer contained 10 mM HEPES, 150 mM NaCl, 3 mM EDTA, 0.05% surfactant P20. The chip was activated with an injection of 70 μl of a mixture of 0.05 M EDC and 0.2 M NHS, followed by the injection of approximately 70 μl of 10 μg/ml vinculin in 10 mM sodium acetate, pH 5.0 in one flow cell to yield a response of 7200 RU. Remaining reactive groups in the channel were blocked with an injection of 100 μl ethanolamine. Binding experiments were performed by injecting peptides for 120 s at a flow rate of 20 μl/min, at a concentration of 1 mM in the flow buffer over the chip surface to monitor association kinetics, followed by buffer flow for 120 s to measure dissociation kinetics. Between experiments, the surface was regenerated by injecting a 60 second pulse of 10 mM glycine pH 2.
A general note: In SPR one partner is held on a chip, and binding of the other changes the refractive index at the surface.

“Also recorded” adds a separate entry of the source. Marks after values point to notes of the source that are not given here.

As for “tat-WEQLLTTIARTINEVENQI-(NH2) [tat-ACTN1_VBS]”, the Co-localization with vinculin result in assay [1] was “co-localized with vinculin”. In assay [2] (Fig S10 sheet, replicate 14_06_13, peptide 50 µM, unit assumed), this substance displayed a Platelet activation, donor 14 06 13 of 68%. In assay [2] (Fig S10 sheet, replicate 18_06_13, peptide 50 µM, unit assumed), this substance had a Platelet activation, donor 18 06 13 of 73%. For the same substance, the Platelet activation, donor 22 08 13 DONOR1 in assay [2] (Fig S10 sheet, replicate 22_08_13_DONOR1, peptide 50 µM, unit assumed) came to 59%. The same substance gave a Platelet activation, donor 22 08 13 DONOR2 in assay [2] (Fig S10 sheet, replicate 22_08_13_DONOR2, peptide 50 µM, unit assumed) of 41%. In addition, the Activation in assay [2] (platelet aggregation in resting platelets after 6 minutes incubation with peptide, pal-peptides 20 μM, tat-peptides 50 μM, optical density, aggregometer, mean, n>=3) is reported as 66 ^*. Also, the “Aggregation before TRAP activation, donor e” value in assay [2] (replicate donor e, pal 20 μM, tat 50 μM) is listed as 73. The “Aggregation before TRAP activation, donor k” value in assay [2] (replicate donor k, pal 20 μM, tat 50 μM) came to 59. The “Aggregation before TRAP activation, donor l” value in assay [2] (replicate donor l, pal 20 μM, tat 50 μM) was 68. The “Relative binding affinity to immobilised vinculin” value in assay [3] is reported as “tat-ACTN1_VBS > TLN1_VBS-tat > ACTN1_VBS-tat > ACTN1_VBS; also recorded: bound with relatively higher affinity”.
